According to PubChem BioAssay AID2060496 (Molecular Pharmacology Branch, DTP, NCI, 2025):

Tested on: 276233-004-R-J1-PDC complex spheroid viability
Assay: Anticancer human tumor 276233-004-R-J1-PDC patient-derived colon adenocarcinoma cell line growth inhibition [GQUAD]
Conditions: for IC50: curve of first compound; for viability, T/C: stronger effect = lower value
Method in brief: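 Tumor cells were grown as complex spheroids with HUVEC endothelial cells and mesenchymal stem cells as stroma. G-quadruplex stabilizers were combined with targeted agents over half-log dilutions from near the clinical Cmax, or from 10 microM.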

[1] = second compound 0.0316 µM, first compound 0.0316 µM
[2] = second compound 0.0316 µM, first compound 0.1 µM
[3] = second compound 0.0316 µM, first compound 0.316 µM
[4] = second compound 0.0316 µM, first compound 1 µM
[5] = second compound 0.0316 µM, first compound 3.16 µM
[6] = second compound 0.0316 µM, first compound 10 µM
[7] = second compound 0.1 µM, first compound 0.0316 µM
[8] = second compound 0.1 µM, first compound 0.1 µM
[9] = second compound 0.1 µM, first compound 0.316 µM
[10] = second compound 0.1 µM, first compound 1 µM
[11] = second compound 0.1 µM, first compound 3.16 µM
[12] = second compound 0.1 µM, first compound 10 µM
[13] = second compound 0.316 µM, first compound 0.0316 µM
[14] = second compound 0.316 µM, first compound 0.1 µM
[15] = second compound 0.316 µM, first compound 0.316 µM
[16] = second compound 0.316 µM, first compound 1 µM
[17] = second compound 0.316 µM, first compound 3.16 µM
[18] = second compound 0.316 µM, first compound 10 µM
[19] = second compound 1 µM, first compound 0.0316 µM
[20] = second compound 1 µM, first compound 0.1 µM
[21] = second compound 1 µM, first compound 0.316 µM
[22] = second compound 1 µM, first compound 1 µM
[23] = second compound 1 µM, first compound 3.16 µM
[24] = second compound 1 µM, first compound 10 µM
[25] = second compound 3.16 µM, first compound 0.0316 µM
[26] = second compound 3.16 µM, first compound 0.1 µM
[27] = second compound 3.16 µM, first compound 0.316 µM
[28] = second compound 3.16 µM, first compound 1 µM
[29] = second compound 3.16 µM, first compound 3.16 µM
[30] = second compound 3.16 µM, first compound 10 µM
[31] = second compound 10 µM, first compound 0.0316 µM
[32] = second compound 10 µM, first compound 0.1 µM
[33] = second compound 10 µM, first compound 0.316 µM
[34] = second compound 10 µM, first compound 1 µM
[35] = second compound 10 µM, first compound 3.16 µM
[36] = second compound 10 µM, first compound 10 µM
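Note: spheroids exposed to drugs for seven days.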
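Throughout, for viability, T/C: 100% = DMSO vehicle control viability.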

## CC1COCCN1c1cc(C2(O)CC3CCC(C2)O3)c2cnn(-c3ccn[nH]3)c2n1 (stereo unspecified) + CN(C)c1ccc(Nc2c3ccc(NC(=O)CCN4CCCC4)cc3nc3cc(NC(=O)CCN4CCCC4)ccc23)cc1
Second compound 0.0316 µM
  IC50: 2840 nM
Second compound 0.1 µM
  IC50: 2410 nM
Second compound 0.316 µM
  IC50: 341 nM
Second compound 1 µM
  IC50: 555 nM
Second compound 3.16 µM
  IC50: 90.9 nM
Second compound 10 µM
  IC50: 43.4 nM
[1]
  viability, T/C: 74.7%
[2]
  viability, T/C: 80.9%
[3]
  viability, T/C: 72.7%
[4]
  viability, T/C: 69%
[5]
  viability, T/C: 47.7%
[6]
  viability, T/C: 47.2%
[7]
  viability, T/C: 77.4%
[8]
  viability, T/C: 89.3%
[9]
  viability, T/C: 75%
[10]
  viability, T/C: 60.8%
[11]
  viability, T/C: 45.2%
[12]
  viability, T/C: 46%
[13]
  viability, T/C: 64.9%
[14]
  viability, T/C: 50.3%
[15]
  viability, T/C: 50.4%
[16]
  viability, T/C: 41.9%
[17]
  viability, T/C: 50.8%
[18]
  viability, T/C: 28.8%
[19]
  viability, T/C: 55.5%
[20]
  viability, T/C: 51.1%
[21]
  viability, T/C: 50.1%
[22]
  viability, T/C: 47.2%
[23]
  viability, T/C: 43.7%
[24]
  viability, T/C: 27.6%
[25]
  viability, T/C: 57.6%
[26]
  viability, T/C: 39.4%
[27]
  viability, T/C: 52.8%
[28]
  viability, T/C: 37.8%
[29]
  viability, T/C: 39.5%
[30]
  viability, T/C: 27.3%
[31]
  viability, T/C: 53.5%
[32]
  viability, T/C: 42.1%
[33]
  viability, T/C: 37.6%
[34]
  viability, T/C: 37.4%
[35]
  viability, T/C: 29.3%
[36]
  viability, T/C: 25.4%

## COc1ncnc(C2CC2)c1-c1ncc2cnn(Cc3ccc(-c4nc(C(F)(F)F)cn4C(C)C)cc3)c2n1 + Cc1[nH]c2ccc(F)cc2c1-c1nc2c3cccnc3c3ncccc3c2[nH]1
Second compound 0.0316 µM
  IC50: > 10000 nM
Second compound 0.1 µM
  IC50: > 10000 nM
Second compound 0.316 µM
  IC50: > 10000 nM
Second compound 1 µM
  IC50: 886 nM
Second compound 3.16 µM
  IC50: < 31.6 nM
Second compound 10 µM
  IC50: < 31.6 nM
[1]
  viability, T/C: 87.2%
[2]
  viability, T/C: 81.3%
[3]
  viability, T/C: 79.2%
[4]
  viability, T/C: 76.4%
[5]
  viability, T/C: 80.4%
[6]
  viability, T/C: 76.2%
[7]
  viability, T/C: 75.5%
[8]
  viability, T/C: 79.2%
[9]
  viability, T/C: 63.5%
[10]
  viability, T/C: 75.7%
[11]
  viability, T/C: 66.6%
[12]
  viability, T/C: 71%
[13]
  viability, T/C: 70%
[14]
  viability, T/C: 63.3%
[15]
  viability, T/C: 83.6%
[16]
  viability, T/C: 53.4%
[17]
  viability, T/C: 73%
[18]
  viability, T/C: 72%
[19]
  viability, T/C: 58%
[20]
  viability, T/C: 42.3%
[21]
  viability, T/C: 57.8%
[22]
  viability, T/C: 51.4%
[23]
  viability, T/C: 48.3%
[24]
  viability, T/C: 45.3%
[25]
  viability, T/C: 18.7%
[26]
  viability, T/C: 16.2%
[27]
  viability, T/C: 15.2%
[28]
  viability, T/C: 14.9%
[29]
  viability, T/C: 12.7%
[30]
  viability, T/C: 20.7%
[31]
  viability, T/C: 34.3%
[32]
  viability, T/C: 29.5%
[33]
  viability, T/C: 47.7%
[34]
  viability, T/C: 31.4%
[35]
  viability, T/C: 27.4%
[36]
  viability, T/C: 33.6%

## O=C(c1cc(Cc2n[nH]c(=O)c3ccccc23)ccc1F)N1CCN(C(=O)C2CC2)CC1 + CN(C)c1ccc(Nc2c3ccc(NC(=O)CCN4CCCC4)cc3nc3cc(NC(=O)CCN4CCCC4)ccc23)cc1
Second compound 0.0316 µM
  IC50: > 10000 nM
Second compound 0.1 µM
  IC50: > 10000 nM
Second compound 0.316 µM
  IC50: > 10000 nM
Second compound 1 µM
  IC50: > 10000 nM
Second compound 3.16 µM
  IC50: > 10000 nM
Second compound 10 µM
  IC50: < 31.6 nM
[1]
  viability, T/C: 76.4%
[2]
  viability, T/C: 83.4%
[3]
  viability, T/C: 91.8%
[4]
  viability, T/C: 125%
[5]
  viability, T/C: 77.4%
[6]
  viability, T/C: 82%
[7]
  viability, T/C: 98.9%
[8]
  viability, T/C: 100%
[9]
  viability, T/C: 97.6%
[10]
  viability, T/C: 84.4%
[11]
  viability, T/C: 76%
[12]
  viability, T/C: 88.1%
[13]
  viability, T/C: 75.5%
[14]
  viability, T/C: 73.8%
[15]
  viability, T/C: 69.5%
[16]
  viability, T/C: 65%
[17]
  viability, T/C: 81.4%
[18]
  viability, T/C: 68.6%
[19]
  viability, T/C: 71.4%
[20]
  viability, T/C: 55.4%
[21]
  viability, T/C: 49.8%
[22]
  viability, T/C: 52.9%
[23]
  viability, T/C: 52%
[24]
  viability, T/C: 55.5%
[25]
  viability, T/C: 52.7%
[26]
  viability, T/C: 53.4%
[27]
  viability, T/C: 52.1%
[28]
  viability, T/C: 55.6%
[29]
  viability, T/C: 48.5%
[30]
  viability, T/C: 53.1%
[31]
  viability, T/C: 41.7%
[32]
  viability, T/C: 63.3%
[33]
  viability, T/C: 48.9%
[34]
  viability, T/C: 57%
[35]
  viability, T/C: 55.2%
[36]
  viability, T/C: 67.3%
